According to patent publication US20230140453A1, “METHOD FOR CONTROLLING OBESITY BY REGULATING ACTIVITY OF TREK1” (KOREA INSTITUTE OF SCIENCE AND TECHNOLOGY, priority 2021, published 2023):

Experiments:
[1] = test system: primary cultured adipocytes; experiment: Potassium conductivity and resting membrane potential in primary cultured adipocytes; assay type: cell-based, mouse (C57BL/6)
Method: (§1) The method for obtaining primary cultured adipocytes is as follows. Primary white adipocytes were isolated from inguinal WAT 6-8 week mouse (C57BL/6). The extracted WAT was washed in a 15 mL tube. The enzyme solution was mixed with collagenase Type II (Worthington Industries, Columbus, Ohio, USA) and PBS (Gibco, N.Y., USA), and the tissue was incubated in 20 mL enzyme solution in an incubator at 37° C. for 1 hour. After filtering, the tissue was added to a new 50 mL tube and centrifuged at 10,000 rpm for 10 minutes. The adipocytes floating in the solution were transferred to a new tube using a pipette. Then, the adipocytes were once more centrifuged in DMEM/F12 (Gibco, N.Y., USA) containing 10% (v/v) FBS. After transferring the fatty layer to the cell culture flask, and the flask was filled with DMEM/F12+mixture. The flask was inverted and incubated in a 37° C. CO2 incubator, and the medium was changed after about 5 days.

[2] = test system: primary cultured adipocytes; experiment: Differentiation of primary cultured adipocytes; assay type: cell-based, mouse (C57BL/6); settings: primary cultured adipocytes treated with TREK1 inhibitor (FIG. 4 legend)
Method: as §1

[3] = test system: 3T3L1 cell line; experiment: Potassium ion conductivity by patch clamp in undifferentiated 3T3L1 cells; assay type: cell-based; settings: undifferentiated condition, patch clamp (FIG. 2B)
Method: (§2) 3T3-L1 cells were purchased from ATCC (American Type Culture Collection) and cultured in Dulbecco's Modified Eagle Medium (Gibco, N.Y., USA) with 10% (v/v) bovine serum (Gibco, N.Y., USA) and 1% v/v) penicillin/streptomycin (Thermo Fisher Scientific, N.J., USA). Cultures were maintained in a humidified 5% CO2 incubator at 37° C. After reaching 80% confluence, the differentiation of 3T3L1 cells was induced by replacing the medium with DMEM containing 10% FBS plus 1 μg/mL insulin, 0.5 mM isobutyl-1-methylxanthine (IBMX), 1 μM and 2 μM Rosiglitazone for 3 days. Afterward the medium was changed with DMEM containing 10% FBS plus 1 μg/mL insulin, and the cells were further cultured for 2 to 4 days. Culture medium contained a combination of IBMX, dexamethasone (Dex), insulin, rosiglitazone, and fetal bovine serum (FBS) to differentiate preadipocyte into mature adipocytes. After differentiation, experiments were conducted at three points. Each time the medium was changed over time, the cells were differentiated with IBMX medium for 3 days, and then changed to insulin medium every 2 days thereafter. As a result of confirmation by a microscope, the cell shape of 3T3-L1 was changed over time and intracellular lipid droplets were produced. […]

[4] = test system: 3T3L1 cells; experiment: Intracellular calcium ion concentration in 3T3L1 preadipocytes; assay type: cell-based
Source text: In summary, the activity of TREK1, which is a potassium ion channel, was decreased in the process of differentiation into adipocytes, and as a result, the cell membrane potential was depolarized, and voltage-dependent calcium ion channels were activated, resulting in increasing intracellular calcium ion concentration and promoting the differentiation of adipocytes.

[5] = test system: 3T3L1 cell line; experiment: Differentiation of 3T3L1 preadipocytes into adipocytes; assay type: cell-based
Method: The 3T3L1 cell line, a preadipocyte cell line, was treated with MDI (Dexamethasone, IBMX, insulin) as a differentiation-inducing agent, and differentiation was induced for 7 days, and the differentiation into adipocytes was confirmed by staining with oil red 0 (FIG. 1A).
as §2, with “thereafter.” for “thereafter. As a result of confirmation by a microscope, the cell shape of 3T3-L1 was changed over time and intracellular lipid droplets were produced.”

[6] = test system: 3T3L1 cell line; experiment: Adipocyte differentiation inhibition by TREK1 activator (triglyceride amount) in 3T3L1 cells; assay type: cell-based; settings: 10 μM, 25 μM
Method: 3T3-L1 cells were purchased from ATCC (American Type Culture Collection) and cultured in Dulbecco's Modified Eagle Medium (Gibco, N.Y., USA) with 10% (v/v) bovine serum (Gibco, N.Y., USA) and 1% v/v) penicillin/streptomycin (Thermo Fisher Scientific, N.J., USA). Cultures were maintained in a humidified 5% CO2 incubator at 37° C. After reaching 80% confluence, the differentiation of 3T3L1 cells was induced by replacing the medium with DMEM containing 10% FBS plus 1 μg/mL insulin, 0.5 mM isobutyl-1-methylxanthine (IBMX), 1 μM and 2 μM Rosiglitazone for 3 days. Afterward the medium was changed with DMEM containing 10% FBS plus 1 μg/mL insulin, and the cells were further cultured for 2 to 4 days. Culture medium contained a combination of IBMX, dexamethasone (Dex), insulin, rosiglitazone, and fetal bovine serum (FBS) to differentiate preadipocyte into mature adipocytes. After differentiation, experiments were conducted at three points. Each time the medium was changed over time, the cells were differentiated with IBMX medium for 3 days, and then changed to insulin medium every 2 days thereafter. As a result of confirmation by a microscope, the cell shape of 3T3-L1 was changed over time and intracellular lipid droplets were produced.
The 3T3L1 cell line, in which the same effect as in vivo and conditions was well confirmed, was treated with ML402, which has been reported to have an active effect on TREK1. Specifically, the cells were sampled on the 3rd, 5th, and 7th days by treating ML402 together from the time of differentiation at concentrations of 10 μM, 25 μM, and 100 μM, respectively.

## spadin
[1]; 1 μM concentration (FIG. 4C)
  resting membrane potential: the resting membrane potential was also increased
[1]; 1 μM concentration (FIGS. 4A and 4B)
  potassium ion conductivity: significantly decreased
[2]
  differentiation into adipocytes: differentiation into adipocytes is significantly increased
[3]
  potassium conductivity: most of the potassium conductivity was decreased
[4]; 30 minutes after spadin treatment (FIG. 3A)
  intracellular calcium ion concentration: a significant increase in calcium ions
[5]; treated in the process of differentiation of 3T3L1 (FIG. 2C)
  degree of differentiation into adipocytes: the degree of differentiation was significantly increased

## Cc1cc(Cl)ccc1OCCNC(=O)c1cccs1 [ML402]
[6]; 3T3L1, 100 μM (FIG. 7)
  differentiation process: inhibited in a concentration-dependent manner
[6]; 3rd day, 100 μM from the time of differentiation, vs control group (FIG. 7)
  amount of triglycerides: did not show a significant difference
[6]; 5th and 7th days, 100 μM from the time of differentiation (FIG. 7)
  amount of triglycerides: decreased in a concentration-dependent manner

## COC(=O)C1=C(C)NC(C)=C(C(=O)OC)C1c1ccccc1[N+](=O)[O-] [nifedifine]
[4]; with voltage-dependent calcium ion channel inhibitor (FIGS. 3B and 3C)
  spadin-induced increase in calcium ions: effectively inhibited
[5]; with voltage-dependent calcium ion channel inhibitor, spadin-treated 3T3L1 (FIGS. 3D and 3E)
  differentiation into adipocytes: differentiation into adipocytes was also inhibited
